Laboratory results published in patent US5684151A, “1-arylsulphonyl, arylcarbonyl and 1-arylphosphonyl-3-phenyl-1,4,5,6-tetrahydropyridazines” (priority 1995, dated 1997).
Read-outs that look alike come from different tables or passages of the source.

Assays:
[1] = tested on: mouse (MC3T3-E1) and human (TE-85) osteoblast-line cells; assay type: cell-based
Procedure, shortened: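 Proliferation was read as ^3H-thymidine (0.4 μCi) uptake during a 4 h pulse, which started 20 h after compound addition. Before dosing, cells sat 24 h in 0.1% FBS. Values are % times control (100%).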

[2] = biological target: T1, progestin receptor from rabbit uterus (Oryctolagus cuniculus, UniProt P06186); test: Progestin receptor binding (3H-R5020 displacement); details: rabbit uterine cytosol, 4° C., 18 h, read-out: IC50: Binding affinity for the progestin receptor from rabbit uterus
T1 construct: Cytosolic progestin receptor were obtained by mixing rabbit uterine tissue with a Tris buffer; from tissue; host or cells: rabbit uterus cytosol
Procedure, shortened: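 Displacement of the radioligand 3H-R5020 was measured in cytosol from homogenized rabbit uterus (pH 7.4 Tris/EDTA/DTT/molybdate buffer), with compounds at 5% final DMSO and about 18 h at 4 °C. Charcoal removed free ligand, scintillation counting quantified bound ligand, and IC50 was the concentration displacing half.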

T1 sequence (P06186 whole entry): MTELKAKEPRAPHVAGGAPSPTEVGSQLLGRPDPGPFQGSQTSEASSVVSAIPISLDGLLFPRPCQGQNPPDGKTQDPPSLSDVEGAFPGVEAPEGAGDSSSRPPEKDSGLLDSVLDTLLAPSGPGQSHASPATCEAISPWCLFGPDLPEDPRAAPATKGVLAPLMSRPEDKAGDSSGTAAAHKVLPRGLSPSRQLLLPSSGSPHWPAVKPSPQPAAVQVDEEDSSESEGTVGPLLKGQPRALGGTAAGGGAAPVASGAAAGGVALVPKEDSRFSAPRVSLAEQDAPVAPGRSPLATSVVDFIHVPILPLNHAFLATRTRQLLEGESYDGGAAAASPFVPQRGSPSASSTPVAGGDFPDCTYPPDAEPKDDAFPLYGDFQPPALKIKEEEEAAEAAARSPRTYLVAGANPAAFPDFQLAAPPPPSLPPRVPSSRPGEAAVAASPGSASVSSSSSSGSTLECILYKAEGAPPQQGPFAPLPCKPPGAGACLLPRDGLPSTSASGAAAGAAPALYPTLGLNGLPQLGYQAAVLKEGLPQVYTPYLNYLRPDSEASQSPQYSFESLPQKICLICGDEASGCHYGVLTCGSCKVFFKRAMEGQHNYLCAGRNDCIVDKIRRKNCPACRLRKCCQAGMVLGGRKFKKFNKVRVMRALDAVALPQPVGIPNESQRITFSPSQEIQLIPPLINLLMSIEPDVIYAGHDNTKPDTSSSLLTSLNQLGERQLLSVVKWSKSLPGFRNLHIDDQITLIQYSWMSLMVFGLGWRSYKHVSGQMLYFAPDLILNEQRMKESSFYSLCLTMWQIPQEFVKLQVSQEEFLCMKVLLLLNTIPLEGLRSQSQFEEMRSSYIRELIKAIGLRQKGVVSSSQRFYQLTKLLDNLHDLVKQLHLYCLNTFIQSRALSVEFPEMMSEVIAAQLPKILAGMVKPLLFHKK

SMILES	Osteoblast Cell Proliferation, 3H-thymidine incorporation vs control (100%) ([1]; 10^-6) [%]	Osteoblast Cell Proliferation, 3H-thymidine incorporation vs control (100%) ([1]; 10^-7) [%]	Osteoblast Cell Proliferation, 3H-thymidine incorporation vs control (100%) ([1]; 10^-8) [%]	Osteoblast Cell Proliferation, 3H-thymidine incorporation vs control (100%) ([1]; 10^-9) [%]	Osteoblast Cell Proliferation, 3H-thymidine incorporation vs control (100%) ([1]; 10^-10) [%]	IC50 [2] [nM]
O=[N+]([O-])c1ccc(S(=O)(=O)N2CCCC(c3ccc(Cl)cc3)=N2)cc1 [Compound 4]	108	111	155	153	158	201
O=C(c1cccc(C(F)(F)F)c1)N1CCCC(c2ccc(Cl)c(Cl)c2)=N1 [Compound 218]	112	115	119	107	109	1980
CCOP(=O)(c1ccccc1)N1CCCC(c2ccccc2)=N1 (centres unmarked) [Compound 253]	151	124	143	142	157	688
CCOP(=O)(c1ccccc1)N1CCCC(c2ccc(Cl)c(Cl)c2)=N1 (centres unmarked) [Compound 255]	107	125	139	132	145	204
COc1ccc(C2=NN(C(=O)c3ccc(C(C)(C)C)cc3)CCC2)cc1 [Compound 201]	89	117	91	69	52	100000
CC(C)(C)c1ccc(C(=O)N2CCCC(c3ccc(Cl)cc3)=N2)cc1 [Compound 195]	103	114	125	127	136	100000
O=S(=O)(/C=C/c1ccccc1)N1CCCC(c2ccc(Cl)c(Cl)c2)=N1 [Compound 167]	126	109	136	144	165	5.93
O=C(c1ccc(Cl)c(Cl)c1)N1CCCC(c2ccc(F)cc2)=N1 [Compound 205]	92	115	140	141	138	263
COc1ccc(C2=NN(S(=O)(=O)c3ccccc3)CCC2)cc1 [Compound 64]	116	115	121	128	137	550
COc1ccc(C2=NN(S(=O)(=O)c3ccc(Cl)cc3)CCC2)cc1 [Compound 63]	101	103	99	77	97	118
COc1ccc(C2=NN(C(=O)c3ccc(Cl)cc3)CCC2)cc1 [Compound 184]	84	102	113	146	131	100000
O=S(=O)(c1cc(C(F)(F)F)cc(C(F)(F)F)c1)N1CCCC(c2ccc(Cl)cc2)=N1 [Compound 33]	96	107	117	127	152	9
O=S(=O)(c1cc(Cl)ccc1Cl)N1CCCC(c2ccc(F)cc2)=N1 [Compound 11]	106	135	156	131	154	20
COc1ccc(C2=NN(C(=O)c3ccc(Cl)c(Cl)c3)CCC2)cc1 [Compound 189]	89	112	98	122	128	100000
COP(=O)(c1ccccc1)N1CCCC(c2ccc(Cl)c(C(F)(F)F)c2)=N1 (centres unmarked) [Compound 261]	98	105	95	100	111	131
O=S(=O)(c1ccc(Cl)cc1)N1CCCC(c2ccc(Cl)cc2)=N1 [Compound 6]	81	97	106	114	121	15
COC12CCCCC1CC(c1ccccc1)=NN2S(=O)(=O)c1ccc(C)cc1 (centres unmarked) [Compound 159, 1,4,4a,5,6,7,8,8a-Octahydro-8a-methoxy-1-(4-methyl-benzenesulfonyl)-3-phenyl-1,2-diazanapthalene]	97	100	91	97	105	1380
COc1ccc(C(=O)N2CCCC(c3ccccc3)=N2)cc1 [Compound 183]	88	133	131	136	135	100000
O=S(=O)(c1ccc2ccccc2c1)N1CCCC(c2ccc(-c3ccccc3)cc2)=N1 [Compound 85]	99	80	76	54	48	1000
COc1ccc(C(=O)N2CCCC(c3ccc(Cl)cc3)=N2)cc1 [Compound 194]	93	130	136	138	144	100000
O=S(=O)(c1ccc(Cl)c(Cl)c1)N1CCCC(c2ccc(Cl)c(C(F)(F)F)c2)=N1 [Compound 81]		110	119	119	128	16.5
O=C(c1ccc(Cl)cc1)N1CCCC(c2ccc(Cl)cc2)=N1 [Compound 193]	107	161	162	190	208	10000
COP(=O)(c1ccccc1)N1CCCC(c2ccccc2)=N1 (centres unmarked) [Compound 252]	75	86	79	97	86	10000
